SMILES strings stand for the structures.

These results are taken from BindingDB's records for doi:10.1021/ml400408c (Wesleyan University, 2014).

The target of the assay is T1, Penicillin-binding protein 4 (Bacillus subtilis (strain 168), UniProt P40750).
T1 sequence (P40750 whole entry): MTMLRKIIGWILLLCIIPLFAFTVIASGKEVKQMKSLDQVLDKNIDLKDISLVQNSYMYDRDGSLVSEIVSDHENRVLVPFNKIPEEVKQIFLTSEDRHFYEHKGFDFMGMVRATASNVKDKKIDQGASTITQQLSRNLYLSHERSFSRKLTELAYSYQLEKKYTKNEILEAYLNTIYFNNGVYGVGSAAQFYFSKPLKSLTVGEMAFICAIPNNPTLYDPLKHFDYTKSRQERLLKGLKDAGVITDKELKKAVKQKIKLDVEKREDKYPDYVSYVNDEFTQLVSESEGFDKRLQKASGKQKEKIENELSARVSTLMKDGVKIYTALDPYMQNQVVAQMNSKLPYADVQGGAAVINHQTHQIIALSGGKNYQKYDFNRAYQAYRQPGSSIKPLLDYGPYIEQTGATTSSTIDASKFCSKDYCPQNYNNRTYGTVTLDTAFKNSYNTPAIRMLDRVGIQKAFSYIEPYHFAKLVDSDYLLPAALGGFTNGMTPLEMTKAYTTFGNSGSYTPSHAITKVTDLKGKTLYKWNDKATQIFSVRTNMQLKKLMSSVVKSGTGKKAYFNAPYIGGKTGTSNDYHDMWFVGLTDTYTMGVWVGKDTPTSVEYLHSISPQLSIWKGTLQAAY
The experiment in a line: Inhibition of Bacillus subtilis 168 PBP4 after 30 mins by SDS-PAGE. Particulars: read-out: kon (M-1-s-1).

As to `CC1(C)S[C@@H]2[C@H](NC(=O)COc3ccccc3)C(=O)N2[C@H]1C(=O)O` [Beepen-VK], the kon (commonly the rate constant with which the complex forms) was determined as 19000 M⁻¹ s⁻¹.
